Measurements published in ChEMBL document CHEMBL1201862, “PubChem BioAssay data set” (2004).
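These data come from cells grown in 96-well plates and exposed to compound for 48 hours at five concentrations. Abbreviation: GI50, concentration required for 50% inhibition of growth.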 Active and inactive are the calls of the source. Cut-off read from the data, not from the text of the source: active = GI50 up to about 1.1 µM and inactive = higher.

Key:
Test in all cases: NCI tumour cell line growth inhibition, 48 h
CCRF-CEM = test system: CCRF-CEM
DU-145 = test system: DU-145
HCT-15 = test system: HCT-15
HL-60 = test system: HL-60
HT-29 = test system: HT-29
IGROV-1 = test system: IGROV-1
KM-20L2 = test system: KM-20L2
KM12 = test system: KM12
LOX IMVI = test system: LOX IMVI
M14 = test system: M14
M19-MEL = test system: M19-MEL
MCF7 = test system: MCF7
NCI-H23 = test system: NCI-H23
OVCAR-4 = test system: OVCAR-4
OVCAR-8 = test system: OVCAR-8
SF-295 = test system: SF-295
SK-MEL-2 = test system: SK-MEL-2
SK-OV-3 = test system: SK-OV-3
SW-620 = test system: SW-620
UACC-62 = test system: UACC-62

## CC12C=CC(=O)C=C1CCC1C3CCC(O)(C(=O)CO)C3(C)CC(O)C12F (stereo not given)
CCRF-CEM
  GI50: 0.536 µM (active)
DU-145
  GI50: > 100 µM (inactive)
HCT-15
  GI50: > 100 µM
HL-60
  GI50: > 100 µM (inactive)
HT-29
  GI50: > 100 µM (inactive)
IGROV-1
  GI50: > 100 µM (inactive)
KM-20L2
  GI50: > 100 µM (inactive)
KM12
  GI50: > 100 µM (inactive)
LOX IMVI
  GI50: > 100 µM (inactive)
M14
  GI50: > 100 µM (inactive)
M19-MEL
  GI50: > 100 µM (inactive)
MCF7
  GI50: > 100 µM (inactive)
NCI-H23
  GI50: > 100 µM (inactive)
OVCAR-4
  GI50: > 100 µM (inactive)
OVCAR-8
  GI50: > 100 µM (inactive)
SF-295
  GI50: > 100 µM (inactive)
SK-MEL-2
  GI50: > 100 µM (inactive)
SK-OV-3
  GI50: > 4.88 µM (inactive)
SW-620
  GI50: > 100 µM (inactive)
UACC-62
  GI50: > 100 µM (inactive)
